Columns and labels:
Type in all cases: cell-based
NALCN [1] = biological target: T1, NALCN (Rattus norvegicus, UniProt Q6Q760); test: Patch-clamp of HEK293T cells transfected with M3R and NALCN, CCh-induced inward current; settings: for compound concentration which decreases half of a NALCN current (rank order): CCh-induced current; for inhibitory effect on a CCh-induced NALCN current: FIG. 6; for activation of NALCN by CCh in the presence of the compound: compound present before CCh
T1 construct: expressed in transfected cells; host or cells: HEK293T
T1 sequence (Q6Q760 whole entry): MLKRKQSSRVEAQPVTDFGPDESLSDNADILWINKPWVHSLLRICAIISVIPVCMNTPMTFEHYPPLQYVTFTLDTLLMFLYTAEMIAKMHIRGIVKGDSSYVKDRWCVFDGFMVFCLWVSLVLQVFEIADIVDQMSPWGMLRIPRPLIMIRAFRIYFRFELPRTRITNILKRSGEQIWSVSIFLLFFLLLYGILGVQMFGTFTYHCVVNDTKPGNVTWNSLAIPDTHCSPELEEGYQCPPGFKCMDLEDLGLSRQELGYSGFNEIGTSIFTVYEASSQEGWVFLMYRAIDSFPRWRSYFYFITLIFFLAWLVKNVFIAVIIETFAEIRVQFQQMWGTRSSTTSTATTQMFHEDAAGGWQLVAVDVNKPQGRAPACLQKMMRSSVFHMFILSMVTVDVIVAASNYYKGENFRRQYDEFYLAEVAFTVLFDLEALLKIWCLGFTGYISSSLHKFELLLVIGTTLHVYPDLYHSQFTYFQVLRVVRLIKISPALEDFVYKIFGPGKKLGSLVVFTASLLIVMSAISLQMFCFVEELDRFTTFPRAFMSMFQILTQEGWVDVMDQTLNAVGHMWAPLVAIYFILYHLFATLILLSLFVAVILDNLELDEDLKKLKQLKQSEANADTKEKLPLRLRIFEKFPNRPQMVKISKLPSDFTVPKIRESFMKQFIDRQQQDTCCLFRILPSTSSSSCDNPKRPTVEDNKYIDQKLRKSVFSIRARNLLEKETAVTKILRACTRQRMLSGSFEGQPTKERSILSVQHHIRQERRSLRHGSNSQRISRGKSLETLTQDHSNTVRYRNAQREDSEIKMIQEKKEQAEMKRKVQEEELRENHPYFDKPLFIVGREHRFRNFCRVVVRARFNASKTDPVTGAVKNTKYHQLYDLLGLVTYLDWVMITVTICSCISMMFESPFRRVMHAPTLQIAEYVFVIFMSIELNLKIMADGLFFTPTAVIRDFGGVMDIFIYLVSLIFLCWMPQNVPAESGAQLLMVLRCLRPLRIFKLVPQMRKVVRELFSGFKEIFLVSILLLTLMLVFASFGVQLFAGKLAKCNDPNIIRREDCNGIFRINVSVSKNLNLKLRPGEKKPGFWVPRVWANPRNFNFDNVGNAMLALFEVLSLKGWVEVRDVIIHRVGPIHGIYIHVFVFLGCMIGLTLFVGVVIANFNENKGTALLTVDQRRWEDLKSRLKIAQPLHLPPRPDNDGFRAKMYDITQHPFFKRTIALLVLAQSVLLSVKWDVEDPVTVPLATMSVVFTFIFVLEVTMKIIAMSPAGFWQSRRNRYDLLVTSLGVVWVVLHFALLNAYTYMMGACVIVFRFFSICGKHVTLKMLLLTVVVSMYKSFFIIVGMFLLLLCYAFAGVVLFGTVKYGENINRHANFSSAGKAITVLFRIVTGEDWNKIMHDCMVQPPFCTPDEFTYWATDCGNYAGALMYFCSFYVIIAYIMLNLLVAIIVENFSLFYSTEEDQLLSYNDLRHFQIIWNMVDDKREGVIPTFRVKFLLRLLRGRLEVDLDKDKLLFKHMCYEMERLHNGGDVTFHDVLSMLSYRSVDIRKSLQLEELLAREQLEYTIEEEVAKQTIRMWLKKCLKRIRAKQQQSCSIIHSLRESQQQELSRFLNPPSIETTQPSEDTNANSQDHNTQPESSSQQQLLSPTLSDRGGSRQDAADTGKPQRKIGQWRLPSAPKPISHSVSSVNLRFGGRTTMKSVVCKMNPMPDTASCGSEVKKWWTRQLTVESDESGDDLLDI
Method: (§1) HEK293T cells were cultured in a DMEM ([…]) medium containing 10% FBS and 1% antibiotics using an incubator having a condition of 37° C. and 5% CO2. NALCN and TRPC cDNAs were respectively constructed using a vector that expresses GFP under an independent promoter. Lipofectamine 2000, which is used as a transfection reagent, was mixed with each plasmid and the cells were treated with the mixture. Then, after 48 hours, expression was identified. In order to identify whether normal transfection with each plasmid occurred, only the cells in which GFP was expressed were selected.
(§2) The HEK293T cells were transfected with combinations of M3R and NALCN, M3R and GFP, and M3R and TRPCs.
Among the transfected HEK293T cells acquired in Experimental Method 2, cells expressing GFP were selected, and a patch pipette formed of a thin glass tube was inserted into a membrane surface. After setting −80 mV as a holding potential, a current was measured. Under the holding potential, treatment with carbachol (CCh) which is an activator of M3R was performed to identify a current induced by NALCN. An extracellular solution was treated with 50 μM of L703606, and change of current caused by CCh was identified. In addition, based on voltage-independent characteristics of NALCN, currents obtained by varying the voltage from −80 mV to +10 mV were measured, and change of current caused by the treatment with L703606 was recorded. All data were presented as mean±standard deviation calculated after treatment with an inhibitor relative to a control (** P<0.01).
HEK293T cells are non-neuronal cells commonly used for transfection of genes. Based on the report that a NALCN channel is activated by M3R in pancreatic beta cells MIN6 and HEK293 cells, M3R and NALCN plasmids that had been cloned from rat brain were co-transfected into HEK293T cells to identify whether L703606 inhibits a NALCN current activated by M3R.

NALCN [2] = biological target: T2, NALCN (Mus musculus, UniProt Q8BXR5); test: Patch-clamp of isolated midbrain dopaminergic neurons (background and NT-induced currents, membrane voltage)
T2 construct: from tissue; host or cells: acutely isolated dopaminergic neurons of mouse substantia nigra pars compacta (TH-GFP mice)
Method: In order to obtain midbrain dopaminergic neurons from mice, substantia nigra pars compacta within mouse midbrain in which GFP was expressed due to tyrosine hydroxylase (TH) promoter was cut into sections. In order to isolate tissue, the sections were subjected to treatment with a highly-concentrated glucose solution at 36.5° C. which contains papain (4 U ml-1) for 20 minutes or longer. The enzymatically-treated sections of substantia nigra pars compacta were washed with a highly-concentrated glucose solution, and then slowly agitated using Pasteur pipettes with various size holes so that the respective dopaminergic neurons were isolated. All animal experiments were conducted under approval of the Institutional Animal Care and Use Committee (IACUC) of Sungkyunkwan University School of Medicine.
Among the dopaminergic neurons isolated in Experimental Method 1, dopaminergic neurons expressing GFP were selected, and a patch pipette formed of thin glass tube was inserted into a membrane surface. After setting −60 mV as a holding potential, a current was measured. A background current was identified under the holding voltage. After treatment with NT, a current was identified. Then, additionally, an extracellular solution was treated with 10 μM of L703606, and change of current was identified. In addition, the above procedure was repeated by replacing sodium ion with N-methyl-D-glucamine (NMDG). After treating the extracellular solution with 0.5 μM of tetrodotoxin (TTX) and 30 μM of ZD7288 which are a voltage-gated sodium channel inhibitor and an HCN channel inhibitor, respectively, a voltage was measured. Additionally, change of voltage at the time of treatment with 10 μM of L703606 was identified. All data were presented as mean±standard deviation calculated at the time of treatment with the inhibitors and replacement of sodium ion, relative to a control. (* P<0.05, ** P<0.01, *** P<0.001).
In addition, it was possible to identify that at the time of replacing sodium with NMDG, the background current was close to 0 pA, and an inward current was not induced by the treatment with NT. From this, it can be seen that the background current is generated by sodium ions.

[3] = test system: transient receptor potential canonical (TRPC) 3, 4, 5, 6, or 7 channel; test: Patch-clamp of HEK293T cells transfected with M3R and a TRPC channel, CCh-induced inward current; settings: holding potential −60 mV, second CCh stimulus, Na+ and K+ removed, cesium added
Method: as §1, §2
From the above, it was possible to identify NALCN inhibitory effects of the NBQN derivatives. Furthermore, in the present example, it was intended to identify whether the NBQN derivatives have specific and exclusive inhibitory activity against NALCN. […]

[4] = holding potential −60 mV, 10 μM of L703606
[5] = holding potential −60 mV, 20 μM of PP1

COc1ccccc1CNC1C2CCN(CC2)C1C(c1ccccc1)c1ccccc1 (centres unmarked) [CP96345, 2-(Diphenylmethyl)-N-(2-methoxybenzyl)quinuclidin-3-amine]
compound concentration which decreases half of a NALCN current (rank order) (NALCN [1]; M3R-NALCN HEK293T cells): next highest inhibitory effects
inhibitory effect on a CCh-induced NALCN current (NALCN [1]; M3R-NALCN HEK293T cells): inhibit a CCh-induced NALCN current in a similar fashion

COc1ccccc1CN[C@H]1CCCN[C@H]1c1ccccc1 [CP99994, (2S,3S)-N-[(2-methoxyphenyl)methyl]-2-phenylpiperidin-3-amine]
inhibitory effect on a CCh-induced NALCN current (NALCN [1]; M3R-NALCN HEK293T cells): insignificant inhibitory effect

Ic1ccccc1CNC1C2CCN(CC2)C1C(c1ccccc1)c1ccccc1 (centres unmarked) [L703606, 2-(Diphenylmethyl)-N-(2-iodobenzyl)quinuclidin-3-amine]
spontaneous activity voltage (NALCN [2]; 10 μM of L703606): completely inhibited
background current (NALCN [2]; [4]): decreased
inward current induced by NT (NALCN [2]; [4]): not induced
membrane potential (NALCN [2]; spontaneous activity stopped by 0.5 μM TTX and 30 μM ZD7288, 10 μM of L703606): induced hyperpolarization of membrane potential
inhibition at 50 µM (NALCN [1]; HEK-293T, cells that co-express M3R-NALCN, holding potential −80 mV, 50 μM of L703606): ≥ 90%
CCh-induced inward current in the presence of PP1, after treatment with L703606 (NALCN [1]; M3R-NALCN HEK293T cells): returning to the background current again immediately
compound concentration which decreases half of a NALCN current (rank order) (NALCN [1]; M3R-NALCN HEK293T cells): highest inhibitory effect
inhibitory effect on a CCh-induced NALCN current (NALCN [1]; M3R-NALCN HEK293T cells): inhibit a CCh-induced NALCN current in a similar fashion
activation of NALCN by CCh in the presence of the compound (NALCN [1]; M3R-NALCN HEK293T cells): not possible to observe activation of NALCN
CCh-induced NALCN current where voltage is changed (NALCN [1]; voltage from −80 mV to +10 mV): decreased to a control level

COc1ccc(C(C)(C)C)cc1CN[C@H]1C2CCN(CC2)[C@H]1C(c1ccccc1)c1ccccc1 [Maropitant, (2S,3S)-2-(Diphenylmethyl)-N-[2-methoxy-5-(2-methyl-2-propanyl)benzyl]quinuclidin-3-amine]
compound concentration which decreases half of a NALCN current (rank order) (NALCN [1]; M3R-NALCN HEK293T cells): next highest inhibitory effects
inhibitory effect on a CCh-induced NALCN current (NALCN [1]; M3R-NALCN HEK293T cells): inhibit a CCh-induced NALCN current in a similar fashion

Cc1ccc(-c2nn(C(C)(C)C)c3ncnc(N)c23)cc1 [PP1]
background current (NALCN [2]; [5]): little effect on the background current
inward current induced by NT stimulus (NALCN [2]; [5]): remarkably decreased
activation of NALCN by CCh in the presence of the compound (NALCN [1]; M3R-NALCN HEK293T cells): strong inward current induced by activation of NALCN
inhibition of the CCh-induced inward current (NALCN [1]; cells that co-express M3R-NALCN, treatment with PP1): did not greatly inhibit

COc1ccc(CCCOC(Cn2ccnc2)c2ccc(OC)cc2)cc1 (centres unmarked) [SKF96365]
CCh-induced inward current (TRPC current activated by M3R) [3]: not created at all

From patent US11298344B2, “Composition for inhibiting sodium leak channel (NALCN), comprising n-benzhydryl quinuclidine derivatives” (Research & Business Foundation Sungkyunkwan University, priority 2018, dated 2022)
